pIC50: −log10 of the molar value. Structures can show the parent of a compound that is named as a salt.

Experimental findings from patent US9447038B2 (SANOFI, priority 2012, dated 2016) are described below.

Chain of human CXCR3-A receptor (P49682 whole entry): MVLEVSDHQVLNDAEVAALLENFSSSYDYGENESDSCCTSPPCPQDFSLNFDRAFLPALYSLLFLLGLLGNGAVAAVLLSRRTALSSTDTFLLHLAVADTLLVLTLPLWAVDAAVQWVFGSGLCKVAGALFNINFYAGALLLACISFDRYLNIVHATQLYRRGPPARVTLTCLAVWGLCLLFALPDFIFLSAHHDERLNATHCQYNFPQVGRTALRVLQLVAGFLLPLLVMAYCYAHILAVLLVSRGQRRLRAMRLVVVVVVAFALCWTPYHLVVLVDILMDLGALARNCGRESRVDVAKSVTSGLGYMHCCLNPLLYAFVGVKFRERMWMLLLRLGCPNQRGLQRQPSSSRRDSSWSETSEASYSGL

The experiment addresses human CXCR3-A receptor (Homo sapiens (Human), UniProt P49682). Description: 125I-CXCL10 competition radioligand binding assay.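 Further: One-hour incubation of membranes with tracer, bound radioligand separated by glass fibre filtration, IC50 derived from four-parameter nonlinear fit of competition curves.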 The conditions noted are these: displacement of 125I-CXCL10 from membranes of CHO cells expressing human recombinant CXCR3-A.
Consider `CCCN(Cc1ccc(OCCN2C(=O)CCC2=O)c(OC)c1)C(CC(=O)O)c1ccc(Cl)cc1` (centres unmarked) [Example 37, 3-(4-Chloro-phenyl)-3-({4-[2-(2,5-dioxo-pyrrolidin-1-yl)-ethoxy]-3-methoxy-benzyl}-propyl-amino)-propionic acid], for which the pIC50 is 7.70.
The figure for `CCCN(Cc1ccc(OCCN2C(=O)CCC2=O)c(Cl)c1)C(CC(=O)O)c1ccc(Cl)cc1` (centres unmarked) [Example 103, 3-({3-Chloro-4-[2-(2,5-dioxo-pyrrolidin-1-yl)-ethoxy]-benzyl}-propyl-amino)-3-(4-chloro-phenyl)-propionic acid] is 6.77; for `COc1cc(CN(Cc2ccc(F)cc2)C(CC(=O)O)c2ccc(Cl)cc2)ccc1OCCN1C(=O)CCC1=O` (centres unmarked) [Example 165, 3-(4-Chloro-phenyl)-3-[{4-[2-(2,5-dioxo-pyrrolidin-1-yl)-ethoxy]-3-methoxy-benzyl}-(4-fluoro-benzyl)-amino]-propionic acid; hydrochloride] it is 7.12; for `CCCN(Cc1ccc(OCCn2c(=O)ccn(C)c2=O)c(OC)c1)C(CC(=O)O)c1ccc(Cl)c(Cl)c1` (centres unmarked) [Example 125, 3-(3,4-Dichloro-phenyl)-3-({3-methoxy-4-[2-(3-methyl-2,6-dioxo-3,6-dihydro-2H-pyrimidin-1-yl)-ethoxy]-benzyl}-propyl-amino)-propionic acid] it is 7.14.
The figure for `COc1cc(CN(CC2CCCC2)C(CC(=O)O)c2ccc(Cl)cc2)ccc1SCCN1C(=O)CCC1=O` (centres unmarked) [Example 188, 3-(4-Chloro-phenyl)-3-(cyclopentylmethyl-{4-[2-(2,5-dioxo-pyrrolidin-1-yl)-ethylsulfanyl]-3-methoxy-benzyl}-amino)-propionic acid] is 7.51; for `CC(C)CN(Cc1ccc(OCCN2C(=O)CCC2=O)c(F)c1)[C@H](CC(=O)O)c1ccc(Cl)c(F)c1` [Example 22, (R)-3-(4-Chloro-3-fluoro-phenyl)-3-({4-[2-(2,5-dioxo-pyrrolidin-1-yl)-ethoxy]-3-fluoro-benzyl}-isobutyl-amino)-propionic acid; hydrochloride] it is 6.27.
The result for `O=C(O)CC(c1ccc(Cl)cc1)N(Cc1ccc(OCCN2C(=O)CCC2=O)c(F)c1)CC1CC1` (centres unmarked) [Example 51, 3-(4-Chloro-phenyl)-3-(cyclopropylmethyl-{4-[2-(2,5-dioxo-pyrrolidin-1-yl)-ethoxy]-3-fluoro-benzyl}-amino)-propionic acid] reads 6.88; that for `CCCCN(Cc1ccc(OCCN2C(=O)CCC2=O)c(C)c1)C(CC(=O)O)c1ccc2c(c1)CCO2` (centres unmarked) [Example 145, 3-(Butyl-{4-[2-(2,5-dioxo-pyrrolidin-1-yl)-ethoxy]-3-methyl-benzyl}-amino)-3-(2,3-dihydro-benzofuran-5-yl)-propionic acid], 7.42.
`CCCN(Cc1ccc(OCCN2C(=O)CCC2=O)c(F)c1)C(c1ccc(Cl)cc1)C(C)C(=O)O` (centres unmarked) [Example 195, 3-(4-Chloro-phenyl)-3-({4-[2-(2,5-dioxo-pyrrolidin-1-yl)-ethoxy]-3-fluoro-benzyl}-propyl-amino)-2-methyl-propionic acid]: the negative logarithm of the IC50 (pIC50) is 6.47.
`CCCCN(Cc1ccc(CCCN2C(=O)CCC2=O)c(OC)c1)C(CC(=O)O)c1ccc2c(c1)CCO2` (centres unmarked) [Example 140, 3-(Butyl-{4-[3-(2,5-dioxo-pyrrolidin-1-yl)-propyl]-3-methoxy-benzyl}-amino)-3-(2,3-dihydro-benzofuran-5-yl)-propionic acid]: the pIC50 is 7.29.
Turning to `Cc1cc(CN(CC2CC2)C(CC(=O)O)c2ccc(Cl)cc2Cl)ccc1OCCN1C(=O)CCC1=O` (centres unmarked) [Example 163, 3-(Cyclopropylmethyl-{4-[2-(2,5-dioxo-pyrrolidin-1-yl)-ethoxy]-3-methyl-benzyl}-amino)-3-(2,4-dichloro-phenyl)-propionic acid], the pIC50 is 6.79.
The figure for `CCCCN(Cc1ccc(OCCn2c(=O)ccn(C)c2=O)c(C)c1)C(CC(=O)O)c1ccc2c(c1)CCO2` (centres unmarked) [Example 161, 3-(Butyl-{3-methyl-4-[2-(3-methyl-2,6-dioxo-3,6-dihydro-2H-pyrimidin-1-yl)-ethoxy]-benzyl}-amino)-3-(2,3-dihydro-benzofuran-5-yl)-propionic acid] is 7.12; for `COc1cc(CN(CC(C)C)C(CC(=O)O)c2ccc(Cl)cc2)ccc1CCCN1C(=O)CCC1=O` (centres unmarked) [Example 134, 3-(4-Chloro-phenyl)-3-({4-[3-(2,5-dioxo-pyrrolidin-1-yl)-propyl]-3-methoxy-benzyl}-isobutyl-amino)-propionic acid] it is 6.53; for `CCCCN(Cc1ccc(OCCN2C(=O)CCC2=O)c(OC)c1)C(CC(=O)O)c1ccc(Cl)c(Cl)c1` (centres unmarked) [Example 48, 3-(Butyl-{4-[2-(2,5-dioxo-pyrrolidin-1-yl)-ethoxy]-3-methoxy-benzyl}-amino)-3-(3,4-dichloro-phenyl)-propionic acid] it is 7.21.
The figure for `COc1cc(CN(CC2CCCCC2)C(CC(=O)O)c2ccc(Cl)c(F)c2)ccc1OCCN1C(=O)CCC1=O` (centres unmarked) [Example 44, 3-(4-Chloro-3-fluoro-phenyl)-3-(cyclohexylmethyl-{4-[2-(2,5-dioxo-pyrrolidin-1-yl)-ethoxy]-3-methoxy-benzyl}-amino)-propionic acid] is 7.37.
The figure for `COc1cc(CN(CC(C)C)C2c3ccc(Cl)cc3CC2C(=O)O)ccc1OCCN1C(=O)CCC1=O` (centres unmarked) [Example 170, 5-Chloro-1-({4-[2-(2,5-dioxo-pyrrolidin-1-yl)-ethoxy]-3-methoxy-benzyl}-isobutyl-amino)-indan-2-carboxylic acid] is 6.46.
Turning to `Cc1cc(CN(CC2CCCC2)[C@@H](CC(=O)O)c2ccc(Cl)cc2)ccc1OCCN1C(=O)CN(C)C1=O` [Example 199, (S)-3-(4-Chloro-phenyl)-3-(cyclopentylmethyl-{3-methyl-4-[2-(3-methyl-2,5-dioxo-imidazolidin-1-yl)-ethoxy]-benzyl}-amino)-propionic acid], the pIC50 is 6.76.
The result for `COc1cc(CN(CC2CC2)C(CC(=O)O)c2ccc(Cl)cc2Cl)ccc1OCCn1c(=O)ccn(C)c1=O` (centres unmarked) [Example 156, 3-(Cyclopropylmethyl-{3-methoxy-4-[2-(3-methyl-2,6-dioxo-3,6-dihydro-2H-pyrimidin-1-yl)-ethoxy]-benzyl}-amino)-3-(2,4-dichloro-phenyl)-propionic acid] reads 6.92; that for `COc1cc(CN(CC2CCCCC2)C(CC(=O)O)c2ccc(Cl)c(Cl)c2)ccc1OCCN1C(=O)CCC1=O` (centres unmarked) [Example 50, 3-(Cyclohexylmethyl-{4-[2-(2,5-dioxo-pyrrolidin-1-yl)-ethoxy]-3-methoxy-benzyl}-amino)-3-(3,4-dichloro-phenyl)-propionic acid], 7.01.
With `CCN(Cc1ccc(OCCN2C(=O)CCC2=O)c(OC)c1)C(C(=O)O)c1ccc(Cl)cc1` (centres unmarked) [Example 182, (4-Chloro-phenyl)-({4-[2-(2,5-dioxo-pyrrolidin-1-yl)-ethoxy]-3-methoxy-benzyl}-ethyl-amino)-acetic acid], the pIC50 was 5.41.
The figure for `CCc1cc(CN(CC2CCCC2)C(CC(=O)O)c2ccc(Cl)c(Cl)c2)ccc1OCCN1C(=O)CCC1=O` (centres unmarked) [Example 100, 3-(Cyclopentylmethyl-{4-[2-(2,5-dioxo-pyrrolidin-1-yl)-ethoxy]-3-ethyl-benzyl}-amino)-3-(3,4-dichloro-phenyl)-propionic acid] is 6.33; for `CCCN(Cc1ccc(CCCN2C(=O)CCC2=O)c(OC)c1)C(CC(=O)O)c1ccc(Cl)cc1` (centres unmarked) [Example 133, 3-(4-Chloro-phenyl)-3-({4-[3-(2,5-dioxo-pyrrolidin-1-yl)-propyl]-3-methoxy-benzyl}-propyl-amino)-propionic acid] it is 6.75.
As to `CCc1cc(CN(CC(C)C)C(CC(=O)O)c2ccc(Cl)c(F)c2)ccc1OCCN1C(=O)CCC1=O` (centres unmarked) [Example 92, 3-(4-Chloro-3-fluoro-phenyl)-3-({4-[2-(2,5-dioxo-pyrrolidin-1-yl)-ethoxy]-3-ethyl-benzyl}-isobutyl-amino)-propionic acid], the negative logarithm of the IC50 (pIC50) was 7.18.
The result for `CCCCN(Cc1ccc(OCCN2C(=O)CCC2=O)c(CC)c1)C(CC(=O)O)c1ccc(Cl)cc1` (centres unmarked) [Example 87, 3-(Butyl-{4-[2-(2,5-dioxo-pyrrolidin-1-yl)-ethoxy]-3-ethyl-benzyl}-amino)-3-(4-chloro-phenyl)-propionic acid] reads 7.51; that for `CCCN(Cc1ccc(OCCN2C(=O)CCC2=O)c(F)c1)[C@H](CC(=O)O)c1ccc(Cl)cc1` [Example 52, (R)-3-(4-Chloro-phenyl)-3-({4-[2-(2,5-dioxo-pyrrolidin-1-yl)-ethoxy]-3-fluoro-benzyl}-propyl-amino)-propionic acid], 6.00; that for `CCCN(Cc1ccc(OCCN2C(=O)CCC2=O)c(F)c1)C(CC(=O)O)c1ccc(Cl)c(Cl)c1` (centres unmarked) [Example 62, 3-(3,4-Dichloro-phenyl)-3-({4-[2-(2,5-dioxo-pyrrolidin-1-yl)-ethoxy]-3-fluoro-benzyl}-propyl-amino)-propionic acid], 6.30.
The result for `COc1cc(CN(C2CCC2)C(CC(=O)O)c2ccc(Cl)cc2)ccc1CCCN1C(=O)CCC1=O` (centres unmarked) [Example 138, 3-(4-Chloro-phenyl)-3-(cyclobutyl-{4-[3-(2,5-dioxo-pyrrolidin-1-yl)-propyl]-3-methoxy-benzyl}-amino)-propionic acid] reads 6.72; that for `Cc1cc(CN(CC(C)C)C(CC(=O)O)c2ccc3c(c2)CCO3)ccc1OCCn1c(=O)ccn(C)c1=O` (centres unmarked) [Example 158, 3-(2,3-Dihydro-benzofuran-5-yl)-3-(isobutyl-{3-methyl-4-[2-(3-methyl-2,6-dioxo-3,6-dihydro-2H-pyrimidin-1-yl)-ethoxy]-benzyl}-amino)-propionic acid], 7.12.
The figure for `COc1cc(CN(CCC(F)(F)F)C(CC(=O)O)c2ccc(Cl)cc2)ccc1OCCn1c(=O)ccn(C)c1=O` (centres unmarked) [Example 130, 3-(4-Chloro-phenyl)-3-[{3-methoxy-4-[2-(3-methyl-2,6-dioxo-3,6-dihydro-2H-pyrimidin-1-yl)-ethoxy]-benzyl}-(3,3,3-trifluoro-propyl)-amino]-propionic acid] is 5.90.
